Assay results published in patent publication US20240398754A1, “VERATRALDEHYDE, PIPERONYL ALCOHOL, ETHYL 2-AMINO BENZOATE, ISOAMYL CINNAMATE, OR DIETHYL MALONATE AS FOOD ADDITIVES WITH ANTI-INFLAMMATORY PROPERTIES” (NATIONAL UNIVERSITY OF IRELAND, MAYNOOTH, priority 2021, published 2024).

Experiments:
[1] = test system: Human THP1 cells; assay: ELISA analysis of IL-10 and TNF expression in media from LPS-stimulated THP1 cells (cytokine release platform); format: cell-based; settings: FIG. 11A-F, compounds at 1 mM, 100 μM and 10 μM for 2 hrs, vs DMSO vehicle
Protocol: FIG. 10: ELISA analysis of IL-10 and TNF expression in media from cells pretreated with DMSO (vehicle) or (A/B) piperonyl acetate and (C/D) piperonyl isobutyrate for 2 hrs and stimulated with LPS for 24 hrs. Human THP1 cells treated with compounds at (1 mM, 100 μM and 10 μM) and LPS […]. All data are presented as the mean±SEM of three or four independent experiments and were subjected to paired Student's t test.
FIG. 11: ELISA analysis of IL-10 and TNF expression in media from cells pretreated with DMSO (vehicle) or (A/B) vanillin, (C/D) ethyl vanillin and (E/F) divanillin for 2 hrs and stimulated with LPS for 24 hrs. Human THP1 cells treated with compounds at (1 mM, 100 μM and 10 μM) and LPS […]. (G) DH82 cells were treated with veratric acid (1 mM, 500 uM, 250 uM, 125 uM, 60 uM, 30 uM) for 2 hrs and stimulated with LPS for 24 hrs. All data are presented as the mean±SEM of three or four independent experiments and were subjected to paired Student's t test.
THP-1 cells were cultured in RPMI supplemented with 10% (v/v) heat inactivated FBS, penicillin G (100 μg/ml) and streptomycin (100 μg/ml) in a 37° C. humidified chamber under a 5% CO2 atmosphere. Cell morphology and confluence, including media acidification colour change were monitored daily. Twice a week, cells were passaged by removal from flask and centrifugation at 400 G. Cells were cultured for a maximum of 25 passages in order to avoid excessive genetic drift. Cells were seeded at 1×10^6/ml.
Cell supernatant or serum samples were collected and stored at −80° C. prior to analysis. 96-well NUNC “Maxisorb” plates were coated with 100 μl capture antibody diluted to a working concentration in PBS. […] The optical density (OD) value of each well was measured at 450 nm with a correction at 590 nm. A ELx800™ microplate reader with Gen5 Data Analysis Software was used to carry out the reading. The sample concentrations were determined by interpolating the sample absorbance from the known concentrations of the standard curve. Standards were assayed in duplicate while samples were analysed in triplicate. […]

[2] = test system: COL2A1; assay: In vitro arthritis model: DH82 supernatant transferred to canine chondrocytes, COL2A1 mRNA by RT-PCR; format: cell-based; settings: FIG. 14(A); DH82 macrophage cells treated with 500 μM for 2 hrs and LPS (100 μg/ml) 3 hours; media transferred to canine chondrocytes (CNC) 24 hours; compared to LPS alone
Protocol: FIG. 13: (1) DH82 cells are plated and stimulated with the compound, followed by LPS. (2) After 24 hours, TNF has been produced by the cells and (3) This liquid supernatant is removed from the cells and reserved. (4) Chondrocytes are plated and (5) the reserved liquid supernatant containing TNF and other inflammatory cytokines from the DH82 cells is added on top of these cells, thus exposing the cartilage cells to an inflammatory environment, simulating an inflammatory joint. (6) After 24 hours gene expression of COL2A1 is measured.
FIG. 14: (A) DH82 cells were stimulated with DMSO (vehicle) or veratraldehyde (500 μM) for 2 hrs and stimulated with LPS (100 μg/ml) for 3 hours. […] COL2A1 mRNA expression was measured by RT-PCR. (B) Quantitative RT-PCR of mRNA expression of COL2A1 in Canine chondrocytes (CNC) pretreated with DMSO (vehicle), Methyl Isoeugenol, NaOH, Vertic Acid, Folic Acid, Piperonyl Alcohol, Veratraldehyde (500 μM) for 24 hrs. […]
Canine chondrocyte (CNC) cells were cultured in complete CNC media in a 37° C. humidified chamber under a 5% CO2 atmosphere. Cell morphology and confluence were monitored daily. […]
Enriched inflammatory cell supernatant from DH82 cells was prepared by first stimulating seeded DH82 cells with compound, followed by stimulation with LPS for 3 hours. […] After 24 hours, mRNA was harvested from CNC as described above and levels of COL2A1 were assessed. […]

[3] = test system: DH82 cells; assay: ELISA of media from LPS-stimulated DH82 cells; format: cell-based, canine; settings: FIG. 11G, 1 mM, 500 uM, 250 uM, 125 uM, 60 uM, 30 uM for 2 hrs, then LPS for 24 hrs
Protocol: FIG. 3: ELISA analysis of TNF expression in media from cells pretreated with DMSO (vehicle) or Veratraldehyde for 2 hrs and stimulated with LPS for 24 hrs. (A) human THP1 cells treated with Veratraldehyde (200 μM, 100 μM and 50 μM) and LPS (1 mg/ml). (B) human peripheral blood mononuclear cell (PBMC) treated with Veratraldehyde (100 μM) and LPS (100 μg/ml). (C) murine bone-marrow-derived macrophages (BMDMs) isolated from C57BL/6 WT mice treated with Veratraldehyde (100 μM) and LPS (100 μg/ml). (D) Quantitative RT-PCR of mRNA expression of Tnf in PBMCs pretreated with DMSO (vehicle) or veratraldehyde (100 μM) for 2 hrs and stimulated with LPS (100 μg/ml) for 3 hrs. (E and G) TNF was measured from canine macrophage-like cells (DH82) treated with veratraldehyde (1 mM, 500 uM, 200 uM, 100 uM, 50 uM, 10 uM) and LPS for 24 hours by ELISA. (F) Quantitative RT-PCR of mRNA expression of Tnf in DH82 cells pretreated with DMSO (vehicle) or veratraldehyde (500 μM) for 2 hrs and stimulated with LPS (100 μg/ml) for 1.5 and 3 hrs. […] COL2A1 mRNA expression was measured by RT-PCR. […]
DH82 cells were cultured in EMEM supplemented with 10% (v/v) heat inactivated FBS, penicillin G (100 μg/ml) and streptomycin (100 μg/ml) in a 37° C. humidified chamber under a 5% CO2 atmosphere. Cell morphology and confluence were monitored daily. […]

| Compound | anti-inflammatory effect (ELISA analysis of IL-10 and TNF expression in media) [1] | other results |
| --- | --- | --- |
| COc1cc(C=O)cc(-c2cc(C=O)cc(OC)c2O)c1O [divanillin] | does not show an anti-inflammatory effect | – |
| CCOc1cc(C=O)ccc1O [ethyl vanillin] | does not show an anti-inflammatory effect | – |
| COc1cc(C=O)ccc1O [vanillin] | does not show an anti-inflammatory effect | – |
| COc1ccc(C=O)cc1OC [veratraldehyde, 3,4-dimethoxybenzaldehyde] | – | levels of COL2A1 (mRNA expression) in chondrocyte cells [2]: significant restoration |
| COc1ccc(C(=O)O)cc1OC [veratric acid] | – | anti-inflammatory effect (ELISA) [3]: does not show an anti-inflammatory effect |
